Test results taken from patent publication US10670605B2, “Cysteine reactive probes and uses thereof” (The Scripps Research Institute, priority 2015, dated 2020).
“And” between values parts separate entries of the source, which are not always exact repeats. Identical values can stand only once.

How the values were obtained:
Assay in all cases: Competitive isoTOP-ABPP, cell lysates;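 on isoTOP-ABPP reactivity profile ratio, P09211 C48: Heavy/light ratio DMSO over fragment-treated so higher means more cysteine engagement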;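 on isoTOP-ABPP reactivity profile ratio, P63244 C182: Heavy/light ratio DMSO over fragment-treated so higher means more cysteine engagement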
Type in all cases: binding
GSTP1 C48 (P09211) = GSTP1 C48 (P09211) (Homo sapiens, UniProt P09211); conditions: for isoTOP-ABPP reactivity ratio, P09211_C48 / isoTOP-ABPP reactivity profile ratio, P09211_C48: 500 μm;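 on isoTOP-ABPP reactivity profile ratio, P09211 C48: Heavy/light ratio DMSO over fragment-treated so higher means more cysteine engagement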
PCK2 C306 (Q16822) = target: T1, PCK2 C306 (Q16822) (Homo sapiens, UniProt Q16822)
T1 sequence (Q16822 33-640): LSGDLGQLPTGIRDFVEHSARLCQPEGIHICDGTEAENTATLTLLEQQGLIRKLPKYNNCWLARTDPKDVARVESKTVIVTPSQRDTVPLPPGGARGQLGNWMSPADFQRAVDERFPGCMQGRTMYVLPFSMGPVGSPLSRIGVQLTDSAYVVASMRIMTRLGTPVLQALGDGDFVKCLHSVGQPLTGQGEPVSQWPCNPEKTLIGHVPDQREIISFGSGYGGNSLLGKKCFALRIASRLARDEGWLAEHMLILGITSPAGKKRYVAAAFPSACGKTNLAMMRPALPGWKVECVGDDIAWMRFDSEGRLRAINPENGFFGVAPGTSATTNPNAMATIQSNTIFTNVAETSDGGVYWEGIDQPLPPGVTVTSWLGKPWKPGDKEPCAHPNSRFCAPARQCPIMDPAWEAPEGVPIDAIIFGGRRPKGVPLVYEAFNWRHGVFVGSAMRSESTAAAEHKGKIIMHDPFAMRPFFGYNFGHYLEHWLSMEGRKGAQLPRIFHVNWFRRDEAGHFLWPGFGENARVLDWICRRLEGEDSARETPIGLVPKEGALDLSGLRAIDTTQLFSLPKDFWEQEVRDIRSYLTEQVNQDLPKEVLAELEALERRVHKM

GNB2L1 C182 (P63244) = GNB2L1 C182 (P63244) (Homo sapiens, UniProt P63244); conditions: for isoTOP-ABPP reactivity ratio, P63244_C182 / isoTOP-ABPP reactivity profile ratio, P63244_C182: 500 μm;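 on isoTOP-ABPP reactivity profile ratio, P63244 C182: Heavy/light ratio DMSO over fragment-treated so higher means more cysteine engagement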
PDIA6 C55 (Q15084) = target: T2, PDIA6 C55 (Q15084) (Homo sapiens, UniProt Q15084); conditions: for isoTOP-ABPP reactivity ratio, Q15084_C55 / isoTOP-ABPP reactivity profile ratio, Q15084_C55: 500 μm
T2 sequence (Q15084 20-440): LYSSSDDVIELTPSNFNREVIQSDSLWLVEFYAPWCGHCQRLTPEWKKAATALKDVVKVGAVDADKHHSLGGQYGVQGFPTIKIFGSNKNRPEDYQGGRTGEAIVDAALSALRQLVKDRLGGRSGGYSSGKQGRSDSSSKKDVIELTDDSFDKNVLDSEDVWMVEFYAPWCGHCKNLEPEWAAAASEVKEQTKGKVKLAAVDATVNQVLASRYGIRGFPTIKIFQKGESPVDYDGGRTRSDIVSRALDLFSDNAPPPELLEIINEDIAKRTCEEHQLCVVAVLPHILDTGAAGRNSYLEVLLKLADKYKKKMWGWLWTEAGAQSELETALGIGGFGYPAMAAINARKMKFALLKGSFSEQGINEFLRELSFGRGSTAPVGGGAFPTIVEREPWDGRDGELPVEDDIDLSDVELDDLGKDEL

SMARCC2 C145 (Q8TAQ2) = SMARCC2 C145 (Q8TAQ2) (Homo sapiens, UniProt Q8TAQ2)
XPO1 C528 (O14980) = XPO1 C528 (O14980) (Homo sapiens, UniProt O14980)
SAMHD1 C522 (Q9Y3Z3) = SAMHD1 C522 (Q9Y3Z3) (Homo sapiens, UniProt Q9Y3Z3); conditions: for isoTOP-ABPP reactivity ratio, Q9Y3Z3_C522: in-vitro_ramos
STAT3 C259 (P40763) = STAT3 C259 (P40763) (Homo sapiens, UniProt P40763); conditions: for isoTOP-ABPP reactivity ratio, P40763_C259: 500 μm
UBE2L3 C86 (P68036) = UBE2L3 C86 (P68036) (Homo sapiens, UniProt P68036); conditions: for isoTOP-ABPP reactivity ratio, P68036_C86 / isoTOP-ABPP reactivity profile ratio, P68036_C86: 500 μm
PDIA6 C190 (Q15084) = target: T3, PDIA6 C190 (Q15084) (Homo sapiens, UniProt Q15084)
T3 sequence (Q15084 20-440): T2 sequence (Q15084 20-440)

IDH1 C269 (O75874) = IDH1 C269 (O75874) (Homo sapiens, UniProt O75874)

## CC(C)CCOCCNC(=O)CCl [compound 27]
GSTP1 C48 (P09211); 500 μm in-vitro ramos
  isoTOP-ABPP ratio (reactivity profile), P09211_C48: 1.0
GSTP1 C48 (P09211); 500 μm in-vitro ramos_231
  isoTOP-ABPP ratio (reactivity profile), P09211_C48: 1.3 and 1.0
PCK2 C306 (Q16822); 500 μm in-vitro ramos
  isoTOP-ABPP ratio (reactivity profile), Q16822_C306: 1.1
PCK2 C306 (Q16822); 500 μm in-vitro ramos_231
  isoTOP-ABPP ratio (reactivity profile), Q16822_C306: 1.4 and 1.5
GNB2L1 C182 (P63244); 500 μm in-vitro ramos
  isoTOP-ABPP ratio (reactivity profile), P63244_C182: 1.1
GNB2L1 C182 (P63244); 500 μm in-vitro ramos_231
  isoTOP-ABPP ratio (reactivity profile), P63244_C182: 1.0 and 0.8
PDIA6 C55 (Q15084); 500 μm in-vitro ramos
  isoTOP-ABPP ratio (reactivity profile), Q15084_C55: 1.2
PDIA6 C55 (Q15084); 500 μm in-vitro ramos_231
  isoTOP-ABPP ratio (reactivity profile), Q15084_C55: 0.8 and 1.1
SMARCC2 C145 (Q8TAQ2); 500 μm in-vitro ramos
  isoTOP-ABPP ratio (reactivity profile), Q8TAQ2_C145: 1.2
SMARCC2 C145 (Q8TAQ2); 500 μm in-vitro ramos_231
  isoTOP-ABPP ratio (reactivity profile), Q8TAQ2_C145: 0.9
XPO1 C528 (O14980); 500 μm in-vitro ramos
  isoTOP-ABPP ratio (reactivity profile), O14980_C528: 0.8
XPO1 C528 (O14980); 500 μm in-vitro ramos_231
  isoTOP-ABPP ratio (reactivity profile), O14980_C528: 1.2 and 0.9
SAMHD1 C522 (Q9Y3Z3); 500 μm in-vitro ramos
  isoTOP-ABPP ratio (reactivity profile), Q9Y3Z3_C522: 0.9
SAMHD1 C522 (Q9Y3Z3); 500 μm in-vitro ramos_231
  isoTOP-ABPP ratio (reactivity profile), Q9Y3Z3_C522: 0.8 and 1.0
STAT3 C259 (P40763); 500 μm in-vitro ramos_231
  isoTOP-ABPP ratio (reactivity profile), P40763_C259: 0.7
UBE2L3 C86 (P68036); 500 μm in-vitro ramos_231
  isoTOP-ABPP ratio (reactivity profile), P68036_C86: 1.2 and 0.9
PDIA6 C190 (Q15084); 500 μm in-vitro ramos
  isoTOP-ABPP ratio (reactivity profile), Q15084_C190: 1.1
PDIA6 C190 (Q15084); 500 μm in-vitro ramos_231
  isoTOP-ABPP ratio (reactivity profile), Q15084_C190: 0.9

## CCN(CC)c1ccc(S(N)(=O)=O)cc1NC(=O)CCl [compound 30]
GSTP1 C48 (P09211); 500 μm in-vitro ramos
  isoTOP-ABPP ratio (reactivity profile), P09211_C48: 1.4
GSTP1 C48 (P09211); in-vitro_ramos
  isoTOP-ABPP reactivity ratio, P09211_C48: 1.2
PCK2 C306 (Q16822); 500 μm in-vitro ramos
  isoTOP-ABPP ratio (reactivity profile), Q16822_C306: 1.2
PCK2 C306 (Q16822); 500 μm, in-vitro_ramos
  isoTOP-ABPP reactivity ratio, Q16822_C306: 1.1
IDH1 C269 (O75874); 500 μm in-vitro ramos
  isoTOP-ABPP ratio (reactivity profile), O75874_C269: 0.7
GNB2L1 C182 (P63244); 500 μm in-vitro ramos
  isoTOP-ABPP ratio (reactivity profile), P63244_C182: 1.2
GNB2L1 C182 (P63244); in-vitro_ramos
  isoTOP-ABPP reactivity ratio, P63244_C182: 1.6
PDIA6 C55 (Q15084); 500 μm in-vitro ramos
  isoTOP-ABPP ratio (reactivity profile), Q15084_C55: 2.2
SMARCC2 C145 (Q8TAQ2); 500 μm in-vitro ramos
  isoTOP-ABPP ratio (reactivity profile), Q8TAQ2_C145: 1.1
SMARCC2 C145 (Q8TAQ2); 500 μm, in-vitro_ramos
  isoTOP-ABPP reactivity ratio, Q8TAQ2_C145: 1.5
SAMHD1 C522 (Q9Y3Z3); 500 μm in-vitro ramos
  isoTOP-ABPP ratio (reactivity profile), Q9Y3Z3_C522: 0.7
UBE2L3 C86 (P68036); in-vitro_ramos
  isoTOP-ABPP reactivity ratio, P68036_C86: 1.5
PDIA6 C190 (Q15084); 500 μm in-vitro ramos
  isoTOP-ABPP ratio (reactivity profile), Q15084_C190: 2.3

## CC(C)(C)c1cc(NC(=O)CCl)on1 [compound 32]
GSTP1 C48 (P09211); in-vitro_ramos
  isoTOP-ABPP reactivity ratio, P09211_C48: 1.4
GSTP1 C48 (P09211); in-vitro_ramos_231
  isoTOP-ABPP reactivity ratio, P09211_C48: 1.9
PCK2 C306 (Q16822); 500 μm, in-vitro_ramos_231
  isoTOP-ABPP reactivity ratio, Q16822_C306: 3.2
GNB2L1 C182 (P63244); in-vitro_ramos_231
  isoTOP-ABPP reactivity ratio, P63244_C182: 1.9
PDIA6 C55 (Q15084); in-vitro_ramos
  isoTOP-ABPP reactivity ratio, Q15084_C55: 20.0
PDIA6 C55 (Q15084); in-vitro_ramos_231
  isoTOP-ABPP reactivity ratio, Q15084_C55: 20.0
SMARCC2 C145 (Q8TAQ2); 500 μm, in-vitro_ramos
  isoTOP-ABPP reactivity ratio, Q8TAQ2_C145: 20.0
SMARCC2 C145 (Q8TAQ2); 500 μm, in-vitro_ramos_231
  isoTOP-ABPP reactivity ratio, Q8TAQ2_C145: 20.0
XPO1 C528 (O14980); 500 μm, in-vitro_ramos
  isoTOP-ABPP reactivity ratio, O14980_C528: 1.2
XPO1 C528 (O14980); 500 μm, in-vitro_ramos_231
  isoTOP-ABPP reactivity ratio, O14980_C528: 1.7
SAMHD1 C522 (Q9Y3Z3); 500 μm
  isoTOP-ABPP reactivity ratio, Q9Y3Z3_C522: 1.8
STAT3 C259 (P40763); in-vitro_ramos_231
  isoTOP-ABPP reactivity ratio, P40763_C259: 10.2
UBE2L3 C86 (P68036); in-vitro_ramos
  isoTOP-ABPP reactivity ratio, P68036_C86: 0.9
UBE2L3 C86 (P68036); in-vitro_ramos_231
  isoTOP-ABPP reactivity ratio, P68036_C86: 1.1
PDIA6 C190 (Q15084); 500 μm, in-vitro_ramos
  isoTOP-ABPP reactivity ratio, Q15084_C190: 20.0
PDIA6 C190 (Q15084); 500 μm, in-vitro_ramos_231
  isoTOP-ABPP reactivity ratio, Q15084_C190: 20.0

## C=CC(=O)N1CCC(c2noc3ccc(F)cc23)CC1 [compound 37]
GSTP1 C48 (P09211); in-vitro_ramos
  isoTOP-ABPP reactivity ratio, P09211_C48: 1.2
PCK2 C306 (Q16822); 500 μm, in-vitro_ramos
  isoTOP-ABPP reactivity ratio, Q16822_C306: 1.0
GNB2L1 C182 (P63244); in-vitro_ramos
  isoTOP-ABPP reactivity ratio, P63244_C182: 0.9
PDIA6 C55 (Q15084); in-vitro_ramos
  isoTOP-ABPP reactivity ratio, Q15084_C55: 1.0
XPO1 C528 (O14980); 500 μm, in-vitro_ramos
  isoTOP-ABPP reactivity ratio, O14980_C528: 0.9
SAMHD1 C522 (Q9Y3Z3); 500 μm
  isoTOP-ABPP reactivity ratio, Q9Y3Z3_C522: 0.7
STAT3 C259 (P40763); in-vitro_ramos
  isoTOP-ABPP reactivity ratio, P40763_C259: 0.9
PDIA6 C190 (Q15084); 500 μm, in-vitro_ramos
  isoTOP-ABPP reactivity ratio, Q15084_C190: 1.1

## COc1cc(NC(=O)CCl)cc(OC)c1 [compound 43]
GSTP1 C48 (P09211); in-vitro_ramos
  isoTOP-ABPP reactivity profile ratio, P09211_C48: 2.2
GSTP1 C48 (P09211); in-vitro_ramos_231
  isoTOP-ABPP reactivity profile ratio, P09211_C48: 4.1
PCK2 C306 (Q16822); 500 μm, in-vitro_ramos_231
  isoTOP-ABPP reactivity profile ratio, Q16822_C306: 3.3
IDH1 C269 (O75874); 500 μm, in-vitro_ramos_231
  isoTOP-ABPP reactivity profile ratio, O75874_C269: 0.8
GNB2L1 C182 (P63244); in-vitro_ramos
  isoTOP-ABPP reactivity profile ratio, P63244_C182: 0.9
GNB2L1 C182 (P63244); in-vitro_ramos_231
  isoTOP-ABPP reactivity profile ratio, P63244_C182: 0.9
PDIA6 C55 (Q15084); in-vitro_ramos
  isoTOP-ABPP reactivity profile ratio, Q15084_C55: 20.0
PDIA6 C55 (Q15084); in-vitro_ramos_231
  isoTOP-ABPP reactivity profile ratio, Q15084_C55: 20.0
SMARCC2 C145 (Q8TAQ2); 500 μm, in-vitro_ramos_231
  isoTOP-ABPP reactivity profile ratio, Q8TAQ2_C145: 20.0
XPO1 C528 (O14980); 500 μm, in-vitro_ramos_231
  isoTOP-ABPP reactivity profile ratio, O14980_C528: 4.6
SAMHD1 C522 (Q9Y3Z3); 500 μm, in-vitro_ramos_231
  isoTOP-ABPP reactivity profile ratio, Q9Y3Z3_C522: 2.2
UBE2L3 C86 (P68036); in-vitro_ramos
  isoTOP-ABPP reactivity profile ratio, P68036_C86: 1.7
UBE2L3 C86 (P68036); in-vitro_ramos_231
  isoTOP-ABPP reactivity profile ratio, P68036_C86: 1.1
PDIA6 C190 (Q15084); 500 μm, in-vitro_ramos_231
  isoTOP-ABPP reactivity profile ratio, Q15084_C190: 20.0
